Experimental findings from ChEMBL document CHEMBL1137303, “Progressive docking: a hybrid QSAR/docking approach for accelerating in silico high throughput screening” (J Med Chem, 2006) are described below.

The target in assay [1] is T1, Sex hormone-binding globulin (Homo sapiens, UniProt P04278).
T1 sequence (P04278 whole entry): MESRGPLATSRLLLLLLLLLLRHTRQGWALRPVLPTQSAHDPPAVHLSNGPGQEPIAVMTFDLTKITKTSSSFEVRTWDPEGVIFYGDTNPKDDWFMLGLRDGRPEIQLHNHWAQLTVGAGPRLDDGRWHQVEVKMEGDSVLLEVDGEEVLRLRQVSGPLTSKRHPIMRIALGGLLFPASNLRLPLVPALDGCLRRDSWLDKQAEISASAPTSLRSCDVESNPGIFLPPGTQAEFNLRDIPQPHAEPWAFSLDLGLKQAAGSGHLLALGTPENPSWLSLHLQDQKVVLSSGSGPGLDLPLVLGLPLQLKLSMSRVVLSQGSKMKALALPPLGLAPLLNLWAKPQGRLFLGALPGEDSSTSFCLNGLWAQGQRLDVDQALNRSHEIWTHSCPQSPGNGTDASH
Description: Displacement of [3H]DHT from human SHBG. Background: Displacement assays read how much labelled ligand stays bound in the presence of the test substance.

Assay [2] has as its target T2, Sex hormone-binding globulin (Homo sapiens) (UniProt P04278).
T2 sequence (whole entry): T1 sequence (P04278 whole entry)
Put plainly: Displacement of [3H]DHT from human SHBG relative to testosterone.

A word on the IC50: it is the concentration at which inhibition is half-maximal. Higher therefore signals a need for much substance. For `C[C@]12CC[C@H]3[C@@H](CCC4=CC(=O)CC[C@@]43C)[C@@H]1CC[C@@H]2O` [TESTOSTERONE], in assay [1], the half-inhibitory concentration (IC50) was found to be 0.014 µM.

`CCCC1c2ccc(O)cc2CC1c1ccc(O)cc1` (stereo not given): in assay [2], the relative binding affinity (RBA) was found to be 768. The IC50 in assay [1] worked out at 11.1 µM.

In assay [2], `CC12CCNC(=O)C=C1CCC1C2CCC2(C)C(O)CCC12` (stereo not given) registered a relative binding affinity (RBA) of 66. The IC50 in assay [1] was determined as 0.95 µM.

As for `C[C@]12CC[C@@H]3c4ccc(O)cc4CC[C@H]3[C@@H]1CC[C@@H]2O`, the relative binding affinity (RBA) in assay [2] turned out to be 3.5.

In turn, `Cc1cc(Cc2cc(C)c(O)c(CO)c2)cc(CO)c1O` registered a relative binding affinity (RBA) in assay [2] of 3330. In assay [1], this compound gave a half-maximal inhibitory concentration (IC50) of 48.2 µM.

With `CCC(c1ccc(O)c(O)c1)C(CC)c1ccc(O)c(F)c1` (stereo not given), the relative binding affinity (RBA) in assay [2] came out at 714. The same compound had an IC50 in assay [1] of 10.3 µM.
